In ChEMBL document CHEMBL5154881, “Discovery of First-in-Class TAK1-MKK3 Protein-Protein Interaction (PPI) Inhibitor (R)-STU104 for the Treatment of Ulcerative Colitis through Modulating TNF-α Production” (J Med Chem, 2022):

Assays:
Mus musculus [1] = assay: Antiinflammatory activity against IL-10-/- C57BL/6 mouse model of ulcerative colitis assessed as inhibition ratio of IL-1beta protein expression at 3 mg/kg, IG via gavage and measured after 8 weeks by ELISA relative to control; format: functional; parameters: scale not given: the % may be the effect or the level left
Mus musculus [2] = assay: Anti-ulcerative colitis activity against DSS-induced ulcerative colitis C57BL/6 mouse model assessed as reduction in DAI score at 3 mg/kg, IG via gavage administered for 7 days and measured everyday (reference value: 4.0); format: functional; conditions: time 7 day
[3] = AUC (0 to infinity) in 12 hr starved C57 mouse at 5 mg/kg, iv measured for 0.083 to 24 hrs post-dose by LC-MS-MS analysis; format: ADME, organism-based; parameters: time upper 24 hrs, time lower 0.083 hrs, dose 5 mg/kg, route iv; conditions: in vivo
Mus musculus [4] = assay: Antiinflammatory activity against IL-10-/- C57BL/6 mouse model of ulcerative colitis assessed as inhibition ratio of TNF-alpha protein expression at 3 mg/kg, IG via gavage and measured after 8 weeks by ELISA relative to control; format: functional; parameters: scale not given: the % may be the effect or the level left
RAW264.7 = assay: Inhibition of MKK3-p38-elF4E signaling pathway in mouse RAW264.7 cells assessed as reduction in LPS-induced MK2 phosphorylation treated for 1.5 hrs followed by LPS treatment for 1 hr by Western blot analysis; format: cell-based; conditions: dose 3.125-12.5 µmol/L, time 2.5 hrs, DDE = dose-dependent effect
Mus musculus [5] = assay: Anti-ulcerative colitis activity in DSS-induced C57BL/6 mouse ulcerative colitis model assessed as colon length recovery ratio at 3 mg/kg, IG via gavage measured after 7 days relative to control; format: functional; conditions: time 7 day
Mus musculus [6] = assay: Anti-ulcerative colitis activity against DSS-induced ulcerative colitis C57BL/6 mouse model assessed as body weight recovery rate at 3 mg/kg, IG via gavage administered for 7 days and measured everyday relative to control; format: functional; conditions: time 7 day
Mus musculus [7] = assay: Anti-ulcerative colitis activity in DSS-induced C57BL/6 mouse ulcerative colitis model assessed as histopathological score recovery ratio at 10 mg/kg, IG via gavage measured after 7 days by H and E staining method relative to control; format: functional; conditions: time 7 day
Mus musculus [8] = assay: Antiinflammatory activity against DSS-induced C57BL/6 mouse model of acute ulcerative colitis assessed as reduction in serum TNF-alpha levels administered intragastrically via gavage measured after 7 days by ELISA; format: functional, organism-based; conditions: dose 1-10 mg/kg, route ig, time 7.0 day, DDE = dose-dependent effect
Mus musculus [9] = assay: Antiinflammatory activity against DSS-induced C57BL/6 mouse model of acute ulcerative colitis assessed as inhibition of IL-6 mRNA expression in colon tissue administered intragastrically via gavage measured after 7 days by RT-qPCR analysis; format: functional, organism-based; conditions: route ig, time 7.0 day, DDE = dose-dependent effect
Mus musculus [10] = assay: Antiinflammatory activity against DSS-induced C57BL/6 mouse model of acute ulcerative colitis assessed as inhibition ratio of TNF-alpha mRNA expression in colon tissue at 3 mg/kg, IG via gavage measured after 7 days by RT-qPCR analysis relative to control; format: functional; parameters: scale not given: the % may be the effect or the level left; conditions: time 7 day
[11] = Tmax in 12 hr starved C57 mouse at 30 mg/kg, po measured for 0.083 to 24 hrs post-dose by LC-MS-MS analysis; format: ADME, organism-based; conditions: in vivo, time 0.083-24 hrs
Mus musculus [12] = assay: Anti-ulcerative colitis activity against DSS-induced ulcerative colitis C57BL/6 mouse model assessed as reduction in DAI recovery score ratio at 3 mg/kg, IG via gavage administered for 7 days and measured everyday relative to control; format: functional; parameters: scale not given: the % may be the effect or the level left; conditions: time 7 day
Mus musculus [13] = assay: Anti-ulcerative colitis activity against DSS-induced ulcerative colitis C57BL/6 mouse model assessed as reduction in DAI score at 10 mg/kg, IG via gavage administered for 7 days and measured everyday (reference value: 4.0); format: functional; conditions: time 7 day
[14] = biological target: T1, Dual specificity mitogen-activated protein kinase kinase 3 (Homo sapiens) (UniProt P46734); assay: Binding affinity to CM5 chip immobilized human MKK3 (20 to 347 residues) expressed in Escherichia coli BL21 (DE3) assessed as association constant, Ka by surface plasmon resonance analysis
T1 sequence (whole entry): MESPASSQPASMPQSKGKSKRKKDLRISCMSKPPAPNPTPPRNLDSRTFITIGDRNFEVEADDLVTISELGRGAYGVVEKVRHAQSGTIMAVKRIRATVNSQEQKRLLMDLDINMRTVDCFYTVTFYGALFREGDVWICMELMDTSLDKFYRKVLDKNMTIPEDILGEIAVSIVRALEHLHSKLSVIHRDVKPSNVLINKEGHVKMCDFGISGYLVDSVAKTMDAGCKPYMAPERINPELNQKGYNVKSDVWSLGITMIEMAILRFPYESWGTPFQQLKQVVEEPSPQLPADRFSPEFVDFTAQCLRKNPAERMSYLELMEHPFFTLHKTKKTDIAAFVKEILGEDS

[15] = Toxicity in C57 mouse assessed as maximum tolerated dose administered orally daily for 14 days; conditions: in vivo, route po, time 14 day
[16] = Inhibition of MKK3-p38-elF4E signaling pathway in mouse RAW264.7 cells assessed as inhibition of LPS-induced MKK3 phosphorylation; format: cell-based
Mus musculus [17] = assay: Inhibition of MKK3-p38 MAPK-elF4E signaling pathway in C57BL/6 mouse model of acute ulcerative colitis assessed as decrease in DSS-induced MK2 phosphorylation in colon tissue administered intragastrically via gavage measured after 7 days by Western blot analysis; conditions: dose 1-50 mg/kg, time 7.0 day, DDE = dose-dependent effect
Mus musculus [18] = assay: Antiinflammatory activity against IL-10-/- C57BL/6 mouse model of ulcerative colitis assessed as inhibition ratio of IL-1beta mRNA expression in colon tissue at 3 mg/kg, IG via gavage and measured after 8 weeks by RT-qPCR analysis relative to control; format: functional; parameters: scale not given: the % may be the effect or the level left
Mus musculus [19] = assay: Anti-ulcerative colitis activity against DSS-induced ulcerative colitis C57BL/6 mouse model assessed as body weight recovery rate at 10 mg/kg, IG via gavage administered for 7 days and measured everyday relative to control; format: functional; conditions: time 7 day
[20] = biological target: Voltage-gated inwardly rectifying potassium channel KCNH2 (Homo sapiens, UniProt Q12809); assay: Inhibition of hERG; format: toxicity
Mus musculus [21] = assay: Antiinflammatory activity against DSS-induced C57BL/6 mouse model of acute ulcerative colitis assessed as inhibition ratio of TNF-alpha mRNA expression in colon tissue at 10 mg/kg, IG via gavage measured after 7 days by RT-qPCR analysis relative to control; format: functional; parameters: scale not given: the % may be the effect or the level left; conditions: time 7 day
Mus musculus [22] = assay: Antiinflammatory activity against IL-10-/- C57BL/6 mouse model of ulcerative colitis assessed as inhibition ratio of IL-23 mRNA expression in colon tissue at 3 mg/kg, IG via gavage and measured after 8 weeks by RT-qPCR analysis relative to control; format: functional; parameters: scale not given: the % may be the effect or the level left
Mus musculus [23] = assay: Antiinflammatory activity against DSS-induced C57BL/6 mouse model of acute ulcerative colitis assessed as reduction in serum IL-1beta levels administered intragastrically via gavage measured after 7 days by ELISA; format: functional, organism-based; conditions: dose 1-10 mg/kg, route ig, time 7.0 day, DDE = dose-dependent effect
[24] = biological target: T2, Dual specificity mitogen-activated protein kinase kinase 3 (Homo sapiens, UniProt P46734); assay: Binding affinity to CM5 chip immobilized human MKK3 (20 to 347 residues) expressed in Escherichia coli BL21 (DE3) assessed as dissociation constants, KD by surface plasmon resonance analysis
T2 sequence (P46734 whole entry): T1 sequence (whole entry)

Mus musculus [25] = assay: Antiinflammatory activity against DSS-induced C57BL/6 mouse model of acute ulcerative colitis assessed as inhibition of IL-1beta mRNA expression in colon tissue administered intragastrically via gavage measured after 7 days by RT-qPCR analysis; format: functional, organism-based; conditions: route ig, time 7.0 day, DDE = dose-dependent effect

Voltage-gated inwardly rectifying potassium channel KCNH2, sequence (Q12809 whole entry): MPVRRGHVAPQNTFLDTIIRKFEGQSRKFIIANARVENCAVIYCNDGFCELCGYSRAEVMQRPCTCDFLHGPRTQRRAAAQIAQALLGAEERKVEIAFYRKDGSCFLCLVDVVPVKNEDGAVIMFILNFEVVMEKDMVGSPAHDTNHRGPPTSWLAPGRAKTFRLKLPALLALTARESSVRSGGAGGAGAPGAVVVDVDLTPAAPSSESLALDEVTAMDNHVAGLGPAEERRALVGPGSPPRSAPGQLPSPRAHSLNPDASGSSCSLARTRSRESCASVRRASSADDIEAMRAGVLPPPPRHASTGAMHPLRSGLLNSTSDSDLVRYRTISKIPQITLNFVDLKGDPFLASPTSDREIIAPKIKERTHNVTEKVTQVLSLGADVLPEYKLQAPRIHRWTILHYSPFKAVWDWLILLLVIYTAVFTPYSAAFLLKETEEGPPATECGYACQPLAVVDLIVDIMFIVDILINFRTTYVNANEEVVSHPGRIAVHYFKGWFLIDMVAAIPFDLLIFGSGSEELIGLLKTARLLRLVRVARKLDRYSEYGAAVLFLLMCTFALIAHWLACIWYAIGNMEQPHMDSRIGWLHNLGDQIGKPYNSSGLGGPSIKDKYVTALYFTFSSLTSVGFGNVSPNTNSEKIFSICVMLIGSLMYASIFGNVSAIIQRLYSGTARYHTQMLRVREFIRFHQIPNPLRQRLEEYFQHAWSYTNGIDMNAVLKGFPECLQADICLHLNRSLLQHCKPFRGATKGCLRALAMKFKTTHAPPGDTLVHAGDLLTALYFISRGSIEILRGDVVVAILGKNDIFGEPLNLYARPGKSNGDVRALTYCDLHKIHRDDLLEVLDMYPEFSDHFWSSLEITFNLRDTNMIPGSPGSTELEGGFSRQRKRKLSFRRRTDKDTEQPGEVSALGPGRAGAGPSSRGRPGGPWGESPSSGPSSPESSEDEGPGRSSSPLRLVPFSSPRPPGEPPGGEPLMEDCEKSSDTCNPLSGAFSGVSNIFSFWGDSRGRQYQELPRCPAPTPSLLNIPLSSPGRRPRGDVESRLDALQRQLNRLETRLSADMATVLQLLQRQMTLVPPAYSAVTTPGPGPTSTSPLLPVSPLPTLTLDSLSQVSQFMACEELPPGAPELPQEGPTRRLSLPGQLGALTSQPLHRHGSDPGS

For `COc1ccc([C@H]2CC(=O)c3cc(OC)cc(OC)c32)cc1`, which Activity (Mus musculus [1]) is on record?
Its Activity is 50%.

What about the Activity (Mus musculus [2]) of the same compound?
The Activity was 2.4.

What about the AUC(0-inf) [3] of the same compound?
Its AUC(0-inf) is 8640 ng·h/mL.

What about the Activity (Mus musculus [4]) of the same compound?
Its Activity is 60.3%.

What about the inhibition (RAW264.7) of the same compound?
The inhibition was “Dde”.

And the Activity (Mus musculus [5])?
Its Activity is 51.5%.

What about the Activity (Mus musculus [6]) of the same compound?
Its Activity is 22.7%.

And the Activity (Mus musculus [7])?
Its Activity is 70%.

What about the Activity (Mus musculus [8]) of the same compound?
The Activity was “Dde”.

And the Activity (Mus musculus [9])?
The Activity was “Dde”.

What about the Activity (Mus musculus [10]) of the same compound?
The Activity was 73.2%.

What about the Tmax [11] of the same compound?
The Tmax was 4.98 min.

And the Activity (Mus musculus [12])?
The Activity was 40%.

What about the Activity (Mus musculus [13]) of the same compound?
The Activity was 2.2.

And the Ka [14]?
The Ka was 5.08 10^4/Ms.

And the MTD at 336 h [15]?
Its MTD at 336 h is 500 mg/kg.

What about the IC50 [16] of the same compound?
Its IC50 is 4 µM.

What about the inhibition (Mus musculus [17]) of the same compound?
Its inhibition is “Dde”.

And the Activity (Mus musculus [18])?
The Activity was 36.1%.

And the Activity (Mus musculus [19])?
The Activity was 52.4%.

And the IC50 [20]?
Its IC50 is > 30 µM.

What about the Activity (Mus musculus [21]) of the same compound?
The Activity was 78.5%.

And the Activity (Mus musculus [22])?
Its Activity is 51.7%.

What about the Activity (Mus musculus [23]) of the same compound?
The Activity was “Dde”.

And the Kd [24]?
The Kd was 0.071 µM.

What about the Activity (Mus musculus [25]) of the same compound?
Its Activity is “Dde”.
